Here are results for 79 compounds from PubChem BioAssay AID602427 (Sanford-Burnham Center for Chemical Genomics, 2012).

SMILES strings stand for the structures. pEC50: −log10 of the molar value. Calls of active or inactive are those of the source.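 How the source made its calls: active means EC50 at or below 20 micromolar; inactive means the rest.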

This assay deals with Neurotensin receptor type 1 (Homo sapiens) (UniProt P30989). The assay can be described thus: NTSR1 activation via enzyme-fragment complementation – cell-based, luminescence, CHO-K1 NTSR1 PathHunter, orthogonal assay for NTR1 agonist project, SAR follow-up (AID 602427).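 Further: agonist potency for NTR1 activation where higher luminescence means more arrestin recruitment.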 The conditions noted are these: CHO-K1 NTSR1 PathHunter beta-arrestin.
Chain of Neurotensin receptor type 1 (Homo sapiens) (P30989 whole entry, looked up, the tested form may be a part): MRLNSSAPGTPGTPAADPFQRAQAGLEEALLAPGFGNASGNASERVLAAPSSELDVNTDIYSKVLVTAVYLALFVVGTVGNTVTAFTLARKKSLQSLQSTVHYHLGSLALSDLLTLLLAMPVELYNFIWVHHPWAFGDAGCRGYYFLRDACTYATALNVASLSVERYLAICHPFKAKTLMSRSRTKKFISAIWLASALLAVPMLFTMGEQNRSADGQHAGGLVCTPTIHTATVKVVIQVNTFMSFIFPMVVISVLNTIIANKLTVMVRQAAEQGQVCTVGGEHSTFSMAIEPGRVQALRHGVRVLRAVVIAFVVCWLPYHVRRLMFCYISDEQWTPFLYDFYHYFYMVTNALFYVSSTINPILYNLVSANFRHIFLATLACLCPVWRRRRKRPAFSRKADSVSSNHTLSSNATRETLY
For the compound `Clc1ccc(-n2ncc3c(N4CCN(c5ccccc5)CC4)ncnc32)cc1`, the EC50 is > 33 µM (inactive). `Fc1ccc(Cn2cc3c(-c4ccc(F)cc4)nnc-3c3cc4c(cc32)OCO4)cc1`: the EC50 is > 33 µM (inactive).

For `CCOc1ccc(-c2nnc3c4cc(OC)c(OC)cc4n(Cc4ccccc4)cc2-3)cc1`, the EC50 entry is “inactive”.

Take `COc1ccccc1-c1nc(C(=O)N[C@@H](CC(C)C)C(=O)O)cn1-c1ccnc2ccccc12`: the EC50 was > 33 µM (inactive). `COc1cc2c3nnc(-c4ccc(C)c(C)c4)c-3cn(Cc3ccc(F)cc3)c2cc1OC`: the EC50 was > 33 µM (inactive). The same measure, in the same setting: next, `COc1ccc(/C=N/Nc2nc(-c3ccc(S(=O)(=O)N(C)C)cc3)cs2)cc1`: > 33 µM (inactive); `Cc1ccc(Cn2cc3c(-c4ccc(F)cc4)nnc-3c3cc4c(cc32)OCO4)cc1`: > 33 µM (inactive); `COc1cc2c3nnc(-c4ccc(F)cc4)c-3cn(Cc3ccc(F)cc3)c2cc1OC`: > 33 µM (inactive). On to `COc1ccc(Cn2c(SCc3ccccc3C)nc3cc(OC)c(OC)cc3c2=N)cc1Cl`, for which the EC50 was > 33 µM (inactive). As to `COc1cccc(OC)c1-c1nc(C(=O)N[C@@H](CC(C)C)C(=O)O)cn1-c1ccncc1`, the EC50 was > 33 µM (inactive). Regarding `COc1ccc2c(N3CCN(c4ccccc4OC)CC3)nc(C3CCC3)nc2c1`, the EC50 is > 33 µM (inactive).

For the compound `COc1ccc(C(=O)c2cn(CCc3ccccc3)c3ccccc3c2=O)cc1`, the EC50 was > 33 µM (inactive). For `COc1ccc(Cn2cc3c(-c4ccc(OC)cc4)nnc-3c3ccccc32)cc1`, the EC50 is > 33 µM (inactive). For the compound `COc1ccc(C(=O)c2cn(CC3CC3)c3ccccc3c2=O)cc1`, the EC50 was > 33 µM (inactive).

Regarding `COc1cc2c3nnc(-c4ccc(F)cc4)c-3cn(Cc3cccc(C)c3)c2cc1OC`, the EC50 was > 33 µM (inactive). As to `COc1cc2nc(C)nc(N3CCN(c4ccccc4OC)CC3)c2cc1OC`, the EC50 is > 33 µM (inactive). Regarding `CCOC(=O)c1cc(-c2c(OC)cccc2OC)n(-c2ccnc3cc(Cl)ccc23)n1`, the EC50 is > 33 µM (inactive). As to `COc1cc2nc(-c3ccccc3)nc(N3CCN(c4ccccc4)CC3)c2cc1OC`, the EC50 was > 33 µM (inactive). With `CCOc1ccc(-c2nnc3c4cc(OC)c(OC)cc4n(Cc4ccc(F)cc4)cc2-3)cc1`, the EC50 entry is “inactive”. Still for that read-out and setting: next, `COc1cc2c3nnc(-c4ccccc4)c-3cn(Cc3ccc(C)cc3)c2cc1OC`: > 33 µM (inactive); `COc1cc2nc(-c3ccccc3)nc(N3CCN(c4ccccc4OC)CC3)c2cc1OC`: > 33 µM (inactive). Consider `O=C(O)c1nc(-c2ccnc3ccccc23)c(-c2ccccc2)s1`, for which the EC50 is > 33 µM (inactive). `Cc1ccc(-n2ncc3c(N4CCN(c5ccccc5)CC4)ncnc32)cc1C`: the EC50 was > 33 µM (inactive). With `COc1cccc(OC)c1-c1nc(C(=O)N[C@@H](CC(C)C)C(=O)O)cn1-c1cccc2ccccc12`, the pEC50 is 5.22. Turning to `COc1cc2c3nnc(-c4ccc(C)cc4)c-3cn(Cc3ccc(C)cc3)c2cc1OC`, the EC50 was > 33 µM (inactive). As for `COc1cc2nc(C3CCC3)nc(N3CCN(c4ccccc4C)CC3)c2cc1OC`, the EC50 was > 33 µM (inactive). The same measure, in the same setting: the value for `COc1ccc(C(=O)c2cn(Cc3ccncc3)c3ccccc3c2=O)cc1` was > 33 µM (inactive); that for `COc1ccc(-c2nnc3c4ccccc4n(Cc4ccc(Cl)cc4)cc2-3)cc1` was > 33 µM (inactive).

As for `COc1cc2c3nnc(-c4ccc(F)cc4)c-3cn(CCc3ccccc3)c2cc1OC`, the EC50 was > 33 µM (inactive).

Regarding `Cc1ccc(-n2ncc3c(N4CCN(c5ccc(F)cc5)CC4)ncnc32)c(C)c1`, the EC50 is > 33 µM (inactive). Still for that read-out and setting: next, `Cc1ccc(-n2ncc3c(N4CCN(c5cccc(Cl)c5)CC4)ncnc32)c(C)c1`: > 33 µM (inactive). As for `COc1cccc(OC)c1-c1nc(C(=O)N[C@@H](CC(C)C)C(=O)O)cn1-c1ccnc2ccccc12`, the pEC50 was 4.74. `CCn1cc(C(=O)c2ccc(F)cc2)c(=O)c2cc(OC)c(OC)cc21`: the EC50 is > 33 µM (inactive). Consider `COc1ccccc1-c1cc(C(=O)N[C@@H](CC(C)C)C(=O)O)nn1-c1ccnc2cc(Cl)ccc12`, for which the pEC50 is 6.26. For `COc1cc2nc(C3CCC3)nc(N3CCN(c4ccccc4F)CC3)c2cc1OC`, the EC50 was > 33 µM (inactive).

With `Cc1ccc(-c2nnc3c4cc5c(cc4n(Cc4ccccc4)cc2-3)OCO5)cc1C`, the EC50 is > 33 µM (inactive).

With `COc1ccc2c(c1)c1nnc(-c3ccc(F)cc3)c-1cn2Cc1ccc(C)cc1`, the EC50 was > 33 µM (inactive). Take `COc1cc2c3nnc(-c4ccc(F)cc4)c-3cn(Cc3ccc(C)cc3)c2cc1OC`: the EC50 is > 33 µM (inactive). `COc1cc2c3nnc(-c4ccc(F)cc4)c-3cn(Cc3cccnc3)c2cc1OC`: the EC50 was > 33 µM (inactive). With `COc1ccc(-c2nnc3c4cc(OC)c(OC)cc4n(Cc4ccccc4)cc2-3)cc1`, the EC50 was > 33 µM (inactive). For the compound `CCN(CC)S(=O)(=O)c1ccc(-c2csc(N/N=C/c3ccco3)n2)cc1`, the EC50 was > 33 µM (inactive). In the case of `COc1cc2c3nnc(-c4ccc(C)c(C)c4)c-3cn(Cc3ccccc3)c2cc1OC`, the EC50 entry is “inactive”. On the same count and under the same terms, the value for `COc1cc2c(=O)c(C(=O)c3ccc(F)cc3)cn(Cc3ccncc3)c2cc1OC` was > 33 µM (inactive).

`COc1cccc(OC)c1-c1nc(C(=O)N[C@@H](CC(C)C)C(=O)O)cn1-c1ccnc2cc(Cl)ccc12`: the pEC50 is 5.21. As for `CCn1cc2c(-c3ccc(F)cc3)nnc-2c2cc(OC)c(OC)cc21`, the EC50 is > 33 µM (inactive). For `Fc1ccc(-c2nnc3c4cc5c(cc4n(Cc4ccccc4)cc2-3)OCO5)cc1`, the EC50 is > 33 µM (inactive). Consider `Cc1ccc(/C=N/Nc2nc(-c3ccc(S(=O)(=O)N(C)C)cc3)cs2)cc1`, for which the EC50 was > 33 µM (inactive). `COc1cc2ncnc(N3CCN(c4ccccc4OC)CC3)c2cc1OC`: the EC50 is > 33 µM (inactive). As for `COc1ccc(C(=O)c2cn(Cc3ccc(F)cc3)c3ccccc3c2=O)cc1`, the EC50 is > 33 µM (inactive). As to `N=c1c2ccccc2nc(SCc2ccc(Cl)cc2)n1Cc1ccccc1`, the EC50 was > 33 µM (inactive). Still for that read-out and setting: the value for `COc1cc2c(=O)c(C(=O)c3ccc(F)cc3)cn(Cc3ccc(OC(F)(F)F)cc3)c2cc1OC` was > 33 µM (inactive); that for `Cc1ccc(-n2ncc3c(N4CCN(c5ccc([N+](=O)[O-])cc5)CC4)ncnc32)c(C)c1` was > 33 µM (inactive); that for `COc1cccc(N2CCN(c3ncnc4c3cnn4-c3ccc(C)cc3C)CC2)c1` was > 33 µM (inactive).

`CN(C)S(=O)(=O)c1ccc(-c2csc(N/N=C/c3ccco3)n2)cc1`: the EC50 was > 33 µM (inactive). With `COc1cccc(OC)c1-c1nc(C(=O)O)cn1-c1ccncc1`, the EC50 was > 33 µM (inactive). Regarding `COc1cc2c3nnc(-c4ccc(F)cc4)c-3cn(Cc3ccc(OC(F)(F)F)cc3)c2cc1OC`, the EC50 was > 33 µM (inactive). Turning to `Cc1ccc(-c2nnc3c4cc5c(cc4n(Cc4ccc(F)cc4)cc2-3)OCO5)cc1C`, the EC50 is > 33 µM (inactive). Turning to `Cc1ccc(-c2nnc3c4cc5c(cc4n(Cc4ccccc4)cc2-3)OCO5)cc1`, the EC50 is > 33 µM (inactive).

With `CC(C)C[C@H](NC(=O)c1nc(-c2ccnc3ccccc23)c(-c2ccccc2)s1)C(=O)O`, the EC50 was > 33 µM (inactive). Turning to `COc1ccc(-c2nnc3c4ccccc4n(Cc4ccc(OC(F)(F)F)cc4)cc2-3)cc1`, the EC50 was > 33 µM (inactive). Turning to `Cc1cccc(C)c1-c1nc(C(=O)N[C@@H](CC(C)C)C(=O)O)cn1-c1ccnc2cc(Cl)ccc12`, the EC50 was > 33 µM (inactive).

On to `COc1ccc(/C=N/Nc2nc(-c3ccc(S(=O)(=O)N(C)C)cc3)cs2)cc1OC`, for which the EC50 was > 33 µM (inactive). For `CC(C)C[C@H](NC(=O)c1cn(-c2ccnc3cc(Cl)ccc23)c(-c2ccccc2)n1)C(=O)O`, the EC50 is > 33 µM (inactive). With `COc1ccccc1N1CCN(c2ncnc3c2cnn3-c2ccc(C)cc2C)CC1`, the EC50 entry was “inactive”. On the same count and under the same terms, the value for `Cc1ccc(-n2ncc3c(N4CCN(c5ccccc5F)CC4)ncnc32)c(C)c1` was > 33 µM (inactive); that for `COc1cc2c(=O)c(C(=O)c3ccc(F)cc3)cn(Cc3ccc(Cl)cc3)c2cc1OC` was > 33 µM (inactive); that for `COc1ccccc1-c1cc(C(=O)N[C@@H](CC(C)C)C(=O)OC(C)(C)C)nn1-c1ccnc2cc(Cl)ccc12` was > 33 µM (inactive). With `COc1cccc(OC)c1-c1cc(C(=O)N[C@@H](CC(C)C)C(=O)OC(C)(C)C)nn1-c1ccnc2cc(Cl)ccc12`, the EC50 is > 33 µM (inactive). On to `COc1cc2c(=O)c(C(=O)c3ccc(F)cc3)cn(CCc3ccccc3)c2cc1OC`, for which the EC50 is > 33 µM (inactive). Consider `Cc1ccc(Cn2cc3c(-c4ccc(Cl)cc4)nnc-3c3cc4c(cc32)OCO4)cc1`, for which the EC50 was > 33 µM (inactive). Same read-out and setting: next, `COc1cc2c3nnc(-c4ccc(F)cc4)c-3cn(Cc3ccccn3)c2cc1OC`: > 33 µM (inactive). The same measure, in the same setting: the value for `Cc1ccc(-n2ncc3c(N4CCN(c5ccccc5)CC4)ncnc32)cc1` was > 33 µM (inactive).

Consider `O=C(c1ccccc1)c1cn(Cc2ccccc2)c2ccccc2c1=O`, for which the EC50 is > 33 µM (inactive). Consider `Cc1cccc(-n2ncc3c(N4CCN(c5ccccc5)CC4)ncnc32)c1`, for which the EC50 was > 33 µM (inactive). For `CCCSc1nc2cc(OC)c(OC)cc2c(=N)n1Cc1cccc(C(F)(F)F)c1`, the EC50 is > 33 µM (inactive). Turning to `COc1cc2c3nnc(-c4ccc(F)cc4)c-3cn(CC3CC3)c2cc1OC`, the EC50 is > 33 µM (inactive). Take `COc1cccc(N2CCN(c3nc(C4CCC4)nc4cc(OC)c(OC)cc34)CC2)c1`: the EC50 is > 33 µM (inactive).

As to `COc1cc2c3nnc(-c4ccc(C)cc4)c-3cn(Cc3ccc(F)cc3)c2cc1OC`, the EC50 result was “inactive”. `COc1cc2c3nnc(-c4ccc(F)cc4)c-3cn(Cc3ccccc3)c2cc1OC`: the EC50 entry was “inactive”.
